Series [1] deals with T1, UDP-glucuronosyltransferase 1A1 (Homo sapiens, UniProt P22309).
T1 sequence (P22309 whole entry): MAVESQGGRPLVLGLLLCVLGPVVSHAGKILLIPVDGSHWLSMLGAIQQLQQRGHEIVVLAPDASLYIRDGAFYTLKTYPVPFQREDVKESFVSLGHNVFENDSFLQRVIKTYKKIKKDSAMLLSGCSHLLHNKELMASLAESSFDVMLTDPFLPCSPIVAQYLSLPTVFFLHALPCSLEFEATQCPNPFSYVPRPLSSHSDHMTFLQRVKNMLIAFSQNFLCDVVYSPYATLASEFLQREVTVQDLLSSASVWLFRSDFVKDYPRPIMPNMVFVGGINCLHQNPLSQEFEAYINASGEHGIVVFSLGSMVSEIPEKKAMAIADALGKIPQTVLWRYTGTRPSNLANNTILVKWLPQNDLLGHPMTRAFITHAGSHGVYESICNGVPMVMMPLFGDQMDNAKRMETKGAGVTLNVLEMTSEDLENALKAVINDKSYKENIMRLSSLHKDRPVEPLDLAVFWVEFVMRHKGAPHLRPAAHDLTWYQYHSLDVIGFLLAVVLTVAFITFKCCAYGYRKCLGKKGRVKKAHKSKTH
The series can be described thus: Drug metabolism assessed as UGT1A1 (unknown origin)-mediated metabolite formation. The format is ADME.

For series [2], the target named is T2, UDP-glucuronosyltransferase 1A10 (Homo sapiens, UniProt Q9HAW8).
T2 sequence (Q9HAW8 whole entry): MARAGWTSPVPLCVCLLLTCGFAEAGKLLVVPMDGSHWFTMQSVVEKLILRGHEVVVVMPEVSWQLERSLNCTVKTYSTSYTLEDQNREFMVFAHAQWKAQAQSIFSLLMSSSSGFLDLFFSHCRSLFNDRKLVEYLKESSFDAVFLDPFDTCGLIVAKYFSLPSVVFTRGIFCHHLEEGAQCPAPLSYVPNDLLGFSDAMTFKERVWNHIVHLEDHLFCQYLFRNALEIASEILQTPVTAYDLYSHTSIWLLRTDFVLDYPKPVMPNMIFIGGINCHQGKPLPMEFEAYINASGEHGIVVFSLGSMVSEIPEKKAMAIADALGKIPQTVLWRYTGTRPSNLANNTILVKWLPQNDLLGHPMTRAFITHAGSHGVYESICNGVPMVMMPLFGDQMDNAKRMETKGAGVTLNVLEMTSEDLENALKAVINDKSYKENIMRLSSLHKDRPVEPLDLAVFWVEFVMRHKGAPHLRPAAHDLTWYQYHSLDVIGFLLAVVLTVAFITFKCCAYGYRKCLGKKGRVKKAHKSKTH
The experiment in a line: Drug metabolism assessed as UGT1A10 (unknown origin)-mediated metabolite formation. The series is classed as ADME.

Series [3] has as its target T3, UDP-glucuronosyltransferase 2B7 (Homo sapiens, UniProt P16662).
T3 sequence (P16662 whole entry): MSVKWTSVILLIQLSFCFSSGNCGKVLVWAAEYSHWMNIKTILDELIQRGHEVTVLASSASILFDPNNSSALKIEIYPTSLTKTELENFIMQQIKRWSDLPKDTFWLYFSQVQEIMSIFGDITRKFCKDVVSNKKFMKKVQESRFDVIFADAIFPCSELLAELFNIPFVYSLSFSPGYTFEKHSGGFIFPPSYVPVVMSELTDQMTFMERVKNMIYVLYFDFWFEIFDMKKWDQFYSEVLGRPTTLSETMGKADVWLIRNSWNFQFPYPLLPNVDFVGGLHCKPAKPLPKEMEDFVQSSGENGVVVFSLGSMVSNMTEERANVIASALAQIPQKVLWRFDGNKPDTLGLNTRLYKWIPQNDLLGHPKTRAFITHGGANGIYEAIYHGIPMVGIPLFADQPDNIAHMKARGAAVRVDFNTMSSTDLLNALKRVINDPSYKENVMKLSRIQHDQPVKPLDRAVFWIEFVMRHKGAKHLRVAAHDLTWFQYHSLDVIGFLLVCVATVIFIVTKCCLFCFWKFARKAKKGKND
The series can be described thus: Drug metabolism assessed as UGT2B7 (unknown origin)-mediated metabolite formation. The format is ADME.

In series [4] the target is T4, UDP-glucuronosyltransferase 2B15 (Homo sapiens, UniProt P54855).
T4 sequence (P54855 whole entry): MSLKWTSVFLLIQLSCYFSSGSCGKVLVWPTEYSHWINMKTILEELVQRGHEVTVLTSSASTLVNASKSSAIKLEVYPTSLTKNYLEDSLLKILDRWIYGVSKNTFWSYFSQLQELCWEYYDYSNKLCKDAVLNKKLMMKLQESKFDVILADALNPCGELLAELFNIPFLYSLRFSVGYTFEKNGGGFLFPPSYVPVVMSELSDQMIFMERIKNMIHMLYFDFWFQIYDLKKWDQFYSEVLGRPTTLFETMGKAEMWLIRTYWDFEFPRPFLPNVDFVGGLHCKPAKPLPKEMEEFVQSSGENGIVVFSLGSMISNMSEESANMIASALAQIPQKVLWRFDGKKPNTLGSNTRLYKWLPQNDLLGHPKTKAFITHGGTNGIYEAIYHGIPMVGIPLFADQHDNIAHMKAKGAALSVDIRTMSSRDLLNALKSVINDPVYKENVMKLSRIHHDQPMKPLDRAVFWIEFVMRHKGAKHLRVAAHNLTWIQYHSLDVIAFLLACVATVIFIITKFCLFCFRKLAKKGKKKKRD
The series can be described thus: Drug metabolism assessed as UGT2B15 (unknown origin)-mediated metabolite formation. The series is classed as ADME.

The target in series [5] is T5, Cytochrome P450 1A2 (Homo sapiens, UniProt P05177).
T5 sequence (P05177 whole entry): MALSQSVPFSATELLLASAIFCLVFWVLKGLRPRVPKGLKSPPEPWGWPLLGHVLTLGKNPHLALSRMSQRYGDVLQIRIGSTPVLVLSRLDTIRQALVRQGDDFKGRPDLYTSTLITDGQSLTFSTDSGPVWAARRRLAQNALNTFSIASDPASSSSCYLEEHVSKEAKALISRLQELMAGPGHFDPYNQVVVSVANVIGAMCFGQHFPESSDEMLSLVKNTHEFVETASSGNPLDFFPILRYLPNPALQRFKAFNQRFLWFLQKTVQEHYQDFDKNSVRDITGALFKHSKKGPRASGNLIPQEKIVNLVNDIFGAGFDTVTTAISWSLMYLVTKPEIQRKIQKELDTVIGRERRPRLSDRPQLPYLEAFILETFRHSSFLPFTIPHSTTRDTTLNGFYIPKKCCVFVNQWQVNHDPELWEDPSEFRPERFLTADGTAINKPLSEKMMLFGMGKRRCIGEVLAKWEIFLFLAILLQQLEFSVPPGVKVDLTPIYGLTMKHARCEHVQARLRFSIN
Description: Drug metabolism assessed as CYP1A2 (unknown origin)-mediated metabolite formation

For series [6], the target named is Cytochrome P450 2C9 (Homo sapiens, UniProt P11712).
Chain of Cytochrome P450 2C9 (P11712 whole entry): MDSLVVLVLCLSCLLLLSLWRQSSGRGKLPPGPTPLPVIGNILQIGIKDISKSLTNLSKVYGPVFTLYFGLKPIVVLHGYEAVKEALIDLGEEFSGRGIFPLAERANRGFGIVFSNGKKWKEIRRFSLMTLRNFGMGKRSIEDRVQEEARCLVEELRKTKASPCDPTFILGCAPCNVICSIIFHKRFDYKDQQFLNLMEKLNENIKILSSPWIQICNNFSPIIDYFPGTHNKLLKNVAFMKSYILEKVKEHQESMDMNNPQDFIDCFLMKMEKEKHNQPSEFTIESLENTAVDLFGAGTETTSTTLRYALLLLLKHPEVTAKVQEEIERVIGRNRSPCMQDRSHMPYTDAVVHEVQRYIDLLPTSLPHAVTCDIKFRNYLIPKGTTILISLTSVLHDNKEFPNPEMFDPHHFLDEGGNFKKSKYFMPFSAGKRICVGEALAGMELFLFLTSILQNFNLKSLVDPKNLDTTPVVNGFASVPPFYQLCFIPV
Description: Drug metabolism assessed as CYP2C9 (unknown origin)-mediated metabolite formation
Series [7] addresses Cytochrome P450 2D6 (Homo sapiens, UniProt P10635).
Description: Drug metabolism assessed as CYP2D6 (unknown origin)-mediated metabolite formation
Series [8] concerns the target Cytochrome P450 3A4 (Homo sapiens, UniProt P08684).
Description: Drug metabolism assessed as CYP3A4 (unknown origin)-mediated metabolite formation

Chain of Cytochrome P450 3A4 (P08684 whole entry): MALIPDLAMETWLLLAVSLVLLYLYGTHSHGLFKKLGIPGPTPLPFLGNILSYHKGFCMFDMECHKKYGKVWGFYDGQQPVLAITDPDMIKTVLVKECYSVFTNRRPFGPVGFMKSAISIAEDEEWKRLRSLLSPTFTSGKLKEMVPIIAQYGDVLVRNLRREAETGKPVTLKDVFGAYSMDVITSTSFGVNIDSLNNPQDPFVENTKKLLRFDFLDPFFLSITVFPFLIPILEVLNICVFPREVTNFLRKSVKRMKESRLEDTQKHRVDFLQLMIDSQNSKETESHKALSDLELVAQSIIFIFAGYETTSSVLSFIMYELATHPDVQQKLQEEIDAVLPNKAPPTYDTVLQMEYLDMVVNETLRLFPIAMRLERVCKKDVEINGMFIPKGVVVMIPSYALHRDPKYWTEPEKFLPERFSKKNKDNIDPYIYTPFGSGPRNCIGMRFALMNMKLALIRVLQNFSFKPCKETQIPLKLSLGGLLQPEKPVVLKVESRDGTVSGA
Chain of Cytochrome P450 2D6 (P10635 whole entry): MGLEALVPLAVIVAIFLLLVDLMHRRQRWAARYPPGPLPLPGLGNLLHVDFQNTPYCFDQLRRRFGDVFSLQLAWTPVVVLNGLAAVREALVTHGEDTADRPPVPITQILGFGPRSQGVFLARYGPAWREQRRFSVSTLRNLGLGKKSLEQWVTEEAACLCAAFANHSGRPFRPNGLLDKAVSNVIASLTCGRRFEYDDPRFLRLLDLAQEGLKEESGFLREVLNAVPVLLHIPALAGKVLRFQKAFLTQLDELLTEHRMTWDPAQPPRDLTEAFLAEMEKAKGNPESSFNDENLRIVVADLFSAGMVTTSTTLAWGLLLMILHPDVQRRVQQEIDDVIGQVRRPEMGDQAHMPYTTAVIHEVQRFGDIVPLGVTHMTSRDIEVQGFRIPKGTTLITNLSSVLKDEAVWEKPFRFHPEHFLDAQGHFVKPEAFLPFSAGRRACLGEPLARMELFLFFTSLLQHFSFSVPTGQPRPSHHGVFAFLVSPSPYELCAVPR

On to `COc1ccc2cc([C@H](C)C(=O)O)ccc2c1` [NAPROXEN], for which the Drug metabolism result in series [1] was “Metabolite_Detected”; in series [2], “Metabolite_Notdetected”; in series [3] it was “Metabolite_Detected”; in series [4], “Metabolite_Notdetected”.

As for `CC(C)Cc1ccc(C(C)C(=O)O)cc1` (stereo not drawn) [IBUPROFEN], the Drug metabolism result is listed as “Metabolite_Notdetected” in series [1]; “Metabolite_Notdetected” in series [2]; “Metabolite_Detected” in series [3]; “Metabolite_Notdetected” in series [4]; “Metabolite_Notdetected” in series [5]; “Metabolite_Detected” in series [6]. The Drug metabolism entry in series [7] and in series [8] was “Metabolite_Notdetected” throughout.

`CCOCc1cn(-c2ccc(Cl)cc2)nn1`: the Drug metabolism result was “Metabolite_Notdetected” in series [1]; “Metabolite_Notdetected” in series [2]; “Metabolite_Notdetected” in series [3]; “Metabolite_Notdetected” in series [4]; “Metabolite_Detected” in series [5]; “Metabolite_Notdetected” in series [6]. The Drug metabolism result in series [7] and in series [8] was “Metabolite_Notdetected” throughout.

Regarding `O=C(O)Cc1ccccc1Nc1c(Cl)cccc1Cl` [DICLOFENAC], the Drug metabolism entry in series [1] is “Metabolite_Notdetected”; in series [2], “Metabolite_Notdetected”; in series [3], “Metabolite_Detected”; in series [4] it was “Metabolite_Notdetected”; in series [5], “Metabolite_Notdetected”; in series [6], “Metabolite_Detected”. Moreover, the Drug metabolism result in series [7] and in series [8] was “Metabolite_Notdetected” in each case.
